Numbers after ± are expanded uncertainties.
Assay: xn = mol fraction of the nth substance listed
Conditions: 101 kPa, Liquid; for mass density: Vibrating tube method

CCCC[n+]1cccc(C)c1.F[B-](F)(F)F [1-butyl-3-methylpyridinium tetrafluoroborate] + CCO
Conditions	kinematic viscosity, 293.15 K [m2/s]	kinematic viscosity, 303.15 K [m2/s]	kinematic viscosity, 313.15 K [m2/s]	kinematic viscosity, 323.15 K [m2/s]	mass density, 293.15 K [kg/m3]	mass density, 303.15 K [kg/m3]	mass density, 313.15 K [kg/m3]	mass density, 323.15 K [kg/m3]
x1 = 0.0521	2.07e-06 ± 3.1e-08	1.68e-06 ± 2.5e-08	1.4e-06 ± 2.1e-08	1.18e-06 ± 1.8e-08	855.55 ± 0.31	847.17 ± 0.31	838.85 ± 0.31	830.02 ± 0.32
x1 = 0.0964	2.67e-06 ± 3.9e-08	2.12e-06 ± 3.1e-08	1.75e-06 ± 2.6e-08	1.47e-06 ± 2.2e-08	900.79 ± 0.28	892.48 ± 0.28	884.31 ± 0.29	875.68 ± 0.29
x1 = 0.1964	4.31e-06 ± 6.2e-08	3.36e-06 ± 4.9e-08	2.71e-06 ± 4e-08	2.24e-06 ± 3.3e-08	977.43 ± 0.26	969.49 ± 0.26	961.48 ± 0.26	953.37 ± 0.27
x1 = 0.321	6.84e-06 ± 9.6e-08	5.15e-06 ± 7.4e-08	4.19e-06 ± 6.1e-08	3.39e-06 ± 5e-08	1041.5 ± 0.26	1033.92 ± 0.26	1026.2 ± 0.25	1018.52 ± 0.26
x1 = 0.3936	9.28e-06 ± 1.3e-07	6.82e-06 ± 9.6e-08	5.54e-06 ± 8e-08	4.49e-06 ± 6.5e-08	1068.86 ± 0.26	1061.42 ± 0.26	1053.9 ± 0.26	1046.35 ± 0.26
x1 = 0.4941	1.44e-05 ± 1.9e-07	1.03e-05 ± 1.4e-07	8.05e-06 ± 1.1e-07	6.24e-06 ± 8.9e-08	1098.93 ± 0.28	1091.66 ± 0.28	1084.35 ± 0.27	1076.96 ± 0.27
x1 = 0.59	2.21e-05 ± 2.9e-07	1.5e-05 ± 2e-07	1.15e-05 ± 1.6e-07	8.86e-06 ± 1.2e-07	1121.77 ± 0.3	1114.64 ± 0.3	1107.46 ± 0.29	1100.21 ± 0.29
x1 = 0.691	3.66e-05 ± 4.8e-07	2.32e-05 ± 3.1e-07	1.76e-05 ± 2.4e-07	1.28e-05 ± 1.7e-07	1141.6 ± 0.32	1134.58 ± 0.32	1127.48 ± 0.31	1120.38 ± 0.31
x1 = 0.7952	6.13e-05 ± 7.8e-07	3.68e-05 ± 4.9e-07	2.61e-05 ± 3.5e-07	1.81e-05 ± 2.4e-07	1158.8 ± 0.35	1151.88 ± 0.34	1144.87 ± 0.34	1137.9 ± 0.34
x1 = 0.85	8.37e-05 ± 1.6e-06	4.86e-05 ± 6.5e-07	3.28e-05 ± 4.4e-07	2.23e-05 ± 3e-07	1166.81 ± 0.36	1159.93 ± 0.36	1152.99 ± 0.35	1146.06 ± 0.35
x1 = 0.8992	0.000111 ± 3.1e-06	6.25e-05 ± 8.3e-07	4.03e-05 ± 5.4e-07	2.67e-05 ± 3.6e-07	1173.47 ± 0.37	1166.61 ± 0.37	1159.75 ± 0.37	1152.86 ± 0.36
x1 = 0.9477	0.00015 ± 5.7e-06	8.29e-05 ± 1.6e-06	5.08e-05 ± 5.7e-07	3.29e-05 ± 4.4e-07	1179.57 ± 0.39	1172.74 ± 0.38	1165.95 ± 0.38	1159.11 ± 0.38
